Reference: paper PMC6115404 (2018)

System: bcl2Mid (DNA, G4) GGGCGCGGGAGGAATTGGGCGGG
Assay: native PAGE
Details: K+ (25 mM K-phosphate, 70 mM KCl); samples pH 7.0; gel in TBE pH 8.0; higher-order assemblies at all equivalents

Structure (SMILES): NCCNCCN.NCCNCCN.NCCNCCN.[Pt+2].[Pt+2].[Pt+2].c1cc(-c2ccc(N(c3ccc(-c4ccncc4)cc3)c3ccc(-c4ccncc4)cc3)cc2)ccn1
- binding: yes
